In patent US8765730B2 (Hoffmann-La Roche Inc, priority 2010, dated 2014):

Target: T1, human GPBAR1 receptor (Homo sapiens, UniProt Q8TDU6)
T1 construct: expressed in transfected cells
T1 sequence (Q8TDU6 1-330): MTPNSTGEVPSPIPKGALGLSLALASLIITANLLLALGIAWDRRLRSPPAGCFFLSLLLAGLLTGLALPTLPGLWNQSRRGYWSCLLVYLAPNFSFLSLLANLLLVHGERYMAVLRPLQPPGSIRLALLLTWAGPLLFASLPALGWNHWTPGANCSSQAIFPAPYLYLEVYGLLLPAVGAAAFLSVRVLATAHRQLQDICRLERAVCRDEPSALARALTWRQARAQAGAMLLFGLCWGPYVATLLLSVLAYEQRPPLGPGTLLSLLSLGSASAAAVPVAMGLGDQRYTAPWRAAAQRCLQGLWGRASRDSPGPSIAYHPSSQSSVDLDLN
Assay: functional cAMP assay in CHO-dhfr(minus) cells expressing human GPBAR1 receptors
Format: cell-based
Settings: human EC50, functional cAMP assay, 30 min at 30° C.
Protocol: The final clone was verified by DNA sequence analysis. The plasmid was transfected into CHO cells deficient in dihydrofolate reductase activity (CHO-dhfr−) using Lipofectamine plus (Invitrogen). Clones were isolated in limited dilution conditions and identified by activities in the cAMP assay using lithocholic acid as agonist.
The growth medium was exchanged with Krebs Ringer Bicarbonate buffer with 1 mM IBMX and incubated at 30° C. for 30 min. Compounds were added to a final assay volume of 100 μl and incubated for 30 min at 30° C. […] The time-resolved energy transfer is measured by a TRF reader (Evotec Technologies GmbH, Hamburg Germany), equipped with a ND:YAG laser as excitation source.
EC50 values were determined using Activity Base analysis (ID Business Solution, Limited). […] Specificity for GPBAR1 was tested in non-transfected CHO cells in the same assay as above.

EC50 | SMILES
270 nM | COC(=O)c1ccc(-c2ccc(C(C/C(=N\O)c3ccnc(C)c3)c3ccc(Cl)cc3F)cc2)cc1OC (stereo not shown) [Example 454, 4′-[1-(4-Chloro-2-fluoro-phenyl)-3-[(E)-hydroxyimino]-3-(2-methyl-pyridin-4-yl)-propyl]-3-methoxy-biphenyl-4-carboxylic acid methyl ester]
186 nM | Cc1cc(Cl)ccc1C(C/C(=N\O)c1ccc(=O)n(CCC(N)=O)c1)c1ccc(S(C)(=O)=O)cc1 (stereo not shown) [Example 344, (E)-3-(5-(3-(4-Chloro-2-methylphenyl)-1-(hydroxyimino)-3-(4-(methylsulfonyl)phenyl)-propyl)-2-oxopyridin-1(2H)-yl)propanamide]
10 nM | Cc1cc(/C(C[C@H](c2ccc(C3CN(S(C)(=O)=O)C3)cc2)c2ccccc2C)=N/O)ccn1 [Example 484, (R,E)-1-(2-Methylpyridin-4-yl)-3-(4-(1-(methylsulfonyl)azetidin-3-yl)phenyl)-3-o-tolylpropan-1-one oxime]
8 nM | Cc1cc(/C(C[C@H](c2ccc(-c3nnc(C)o3)cc2)c2ccccc2C)=N/O)ccn1 [Example 417, ((−), E)-3-[4-(5-Methyl-[1,3,4]oxadiazol-2-yl)-phenyl]-1-(2-methyl-pyridin-4-yl)-3-o-tolyl-propan-1-one oxime]
116 nM | Cc1ccccc1C(C/C(=N\O)c1ccc(=O)n(C)c1)c1ccc(C(=O)NC[C@@H](O)CO)cc1 (stereo partly drawn) [Example 307, N—((R)-2,3-Dihydroxypropyl)-4-((E)-3-(hydroxyimino)-3-(1-methyl-6-oxo-1,6-dihydro-pyridin-3-yl)-1-o-tolylpropyl)benzamide]
76 nM | Cc1cc(/C(CC(c2cccc(-c3cccc(C(=O)NCC(=O)O)c3)c2)c2ccccc2C)=N/O)ccn1 (stereo not shown) [Example 108, ({3′-[3-[(E)-Hydroxyimino]-3-(2-methyl-pyridin-4-yl)-1-o-tolyl-propyl]-biphenyl-3-carbonyl}-amino)-acetic acid]
140 nM | COC(=O)CNC(=O)c1ccc(-c2ccc(C(C/C(=N\O)c3ccc(=O)n(C)c3)c3ccc(Cl)cc3C)cc2)cc1 (single isomer, unassigned; (-)) [Example 253, (−)-({4′-[1-(4-Chloro-2-methyl-phenyl)-3-[(E)-hydroxyimino]-3-(1-methyl-6-oxo-1,6-dihydro-pyridin-3-yl)-propyl]-biphenyl-4-carbonyl}-amino)-acetic acid methyl ester]
274 nM | Cc1cc(Cl)ccc1C(C/C(=N\O)c1ccc(=O)n(C)c1)c1ccc(NS(C)(=O)=O)cc1 (stereo not shown) [Example 353, N-{4-[1-(4-Chloro-2-methyl-phenyl)-3-[(E)-hydroxyimino]-3-(1-methyl-6-oxo-1,6-dihydro-pyridin-3-yl)-propyl]phenyl}-methanesulfonamide]
153 nM | Cc1cc(/C(C[C@H](c2ccc(C3CN(C(=O)OC(C)(C)C)C3)cc2)c2ccccc2C)=N/O)ccn1 [Example 481, (R,E)-tert-Butyl 3-(4-(3-(hydroxyimino)-3-(2-methylpyridin-4-yl)-1-o-tolylpropyl)phenyl)-azetidine-1-carboxylate]
455 nM | COC(=O)c1ccc(-c2ccc(C(CC(=NO)c3ccnc(C)c3)c3ccccc3C)cc2)cc1Cl (racemic) [Example 83, 3-Chloro-4′-[3-[hydroxyimino]-3-(2-methyl-pyridin-4-yl)-1-o-tolyl-propyl]-biphenyl-4-carboxylic acid methyl ester]
11 nM | Cc1cc(/C(C[C@H](c2ccc(N3CC(C(=O)O)C3)cc2)c2ccccc2C)=N/O)ccn1 [Example 279, 1-{4-[(R)-3-[(E)-Hydroxyimino]-3-(2-methyl-pyridin-4-yl)-1-o-tolyl-propyl]-phenyl}-azetidine-3-carboxylic acid]
3750 nM | Cc1cc(Cl)ccc1C(C/C(=N\O)c1ccc(=O)n(CC(N)=O)c1)c1ccc(S(C)(=O)=O)cc1 (stereo not shown) [Example 343, (E)-2-(5-(3-(4-Chloro-2-methylphenyl)-1-(hydroxyimino)-3-(4-(methylsulfonyl)-phenyl)propyl)-2-oxopyridin-1(2H)-yl)acetamide]
152 nM | Cn1cc(/C(C[C@@H](c2ccc(-c3ccc(C(=O)O)c(F)c3)cc2)c2ccc(Cl)cc2F)=N/O)ccc1=O (single isomer, unassigned) [Example 464, 4′-[(+)-1-(4-Chloro-2-fluoro-phenyl)-3-[(E)-hydroxyimino]-3-(1-methyl-6-oxo-1,6-dihydro-pyridin-3-yl)-propyl]-3-fluoro-biphenyl-4-carboxylic acid]
4 nM | Cc1cc(/C(C[C@H](c2ccc(-c3nnc(C4CC4)o3)cc2)c2ccccc2C)=N/O)ccn1 [Example 418, ((−), E)-3-(4-(5-Cyclopropyl-1,3,4-oxadiazol-2-yl)phenyl)-1-(2-methylpyridin-4-yl)-3-o-tolylpropan-1-one oxime]
18 nM | Cc1cc(/C(C[C@H](c2ccc(-c3ccc(C(=O)O)c(F)c3)cc2)c2ccc(Cl)cc2F)=N/O)ccn1 (single isomer, unassigned) [Example 448, 4′-[(−)-1-(4-Chloro-2-fluoro-phenyl)-3-[(E)-hydroxyimino]-3-(2-methyl-pyridin-4-yl)-propyl]-3-fluoro-biphenyl-4-carboxylic acid]
154 nM | Cn1cc(/C(C[C@H](c2ccc(-c3ccc(C(=O)O)c(F)c3)cc2)c2ccc(Cl)cc2F)=N/O)ccc1=O (single isomer, unassigned) [Example 463, 4′-[(−)-1-(4-Chloro-2-fluoro-phenyl)-3-[(E)-hydroxyimino]-3-(1-methyl-6-oxo-1,6-dihydro-pyridin-3-yl)-propyl]-3-fluoro-biphenyl-4-carboxylic acid]
421 nM | Cn1cc(/C(CC(c2ccc(-c3ccc(CC(=O)O)cc3)cc2)c2ccc(Cl)cc2F)=N/O)ccc1=O (stereo not shown) [Example 460, {4′-[1-(4-Chloro-2-fluoro-phenyl)-3-[(E)-hydroxyimino]-3-(1-methyl-6-oxo-1,6-dihydro-pyridin-3-yl)-propyl]-biphenyl-4-yl}-acetic acid]
589 nM | Cc1cc(/C(CC(c2cccc(-c3ccc(C(=O)O)cc3)c2)c2ccccc2C)=N/O)ccn1 (stereo not shown) [Example 103, (E)-3′-[3-[Hydroxyimino]-3-(2-methyl-pyridin-4-yl)-1-o-tolyl-propyl]-biphenyl-4-carboxylic acid]
34 nM | Cc1ccccc1C(CC(=NO)c1ccncc1)c1ccc(N2CCCCC2)cc1 (racemic) [Example 40, 3-(4-Piperidin-1-yl-phenyl)-1-pyridin-4-yl-3-o-tolyl-propan-1-one oxime]
127 nM | Cc1cc(/C(C[C@H](c2ccc(C3CNC3)cc2)c2ccccc2C)=N/O)ccn1 [Example 482, (R,E)-3-(4-(Azetidin-3-yl)phenyl)-1-(2-methylpyridin-4-yl)-3-o-tolylpropan-1-one oxime]
6760 nM | Cc1ccccc1C(C/C(=N\O)c1cc(F)cc(F)c1)c1ccc(Br)cc1 (stereo not shown) [Example 53, (E)-3-(4-bromo-phenyl)-1-(3,5-difluoro-phenyl)-3-o-tolyl-propan-1-one oxime]
2180 nM | CC(=O)NCCNC(=O)c1ccc(C(C/C(=N\O)c2ccc(=O)n(C)c2)c2ccccc2C)cc1 (stereo not shown) [Example 246, (E)-N-(2-Acetamidoethyl)-4-(3-(hydroxyimino)-3-(1-methyl-6-oxo-1,6-dihydropyridin-3-yl)-1-o-tolylpropyl)benzamide]
1630 nM | Cc1ccccc1C(C/C(=N\O)c1ccc(=O)n(C)c1)c1ccc(C(=O)N[C@@H](CO)C(C)C)cc1 (stereo partly drawn) [Example 305, N—((R)-1-hydroxy-3-methylbutan-2-yl)-4-((E)-3-(hydroxyimino)-3-(1-methyl-6-oxo-1,6-dihydropyridin-3-yl)-1-o-tolylpropyl)benzamide]
2910 nM | Cc1ccccc1C(CC(=NO)c1cc(Cl)ccc1Cl)c1ccc(Br)cc1 (racemic) [Example 49, 3-(4-Bromo-phenyl)-1-(2,5-dichloro-phenyl)-3-o-tolyl-propan-1-one oxime]
253 nM | Cn1cc(/C(CC(c2ccc(C(=O)NCCO)cc2)c2ccc(Cl)cc2F)=N/O)ccc1=O (stereo not shown) [Example 311, 4-[1-(4-Chloro-2-fluoro-phenyl)-3-[(E)-hydroxyimino]-3-(1-methyl-6-oxo-1,6-dihydro-pyridin-3-yl)-propyl]-N-(2-hydroxy-ethyl)-benzamide]
18 nM | Cc1cc(/C(C[C@H](c2ccccc2)c2ccccc2C)=N/O)ccn1 [Example 368, (R,E)-1-(2-Methylpyridin-4-yl)-3-phenyl-3-o-tolylpropan-1-one oxime]
165 nM | COC(=O)CC(=O)Nc1ccc(-c2ccc(C(C/C(=N\O)c3ccc(=O)n(C)c3)c3ccc(F)cc3C)cc2)cc1 (stereo not shown) [Example 399, N-{4′-[1-(4-Fluoro-2-methyl-phenyl)-3-[(E)-hydroxyimino]-3-(1-methyl-6-oxo-1,6-dihydro-pyridin-3-yl)-propyl]-biphenyl-4-yl}-malonamic acid methyl ester]
62 nM | Cc1cc(Cl)ccc1C(C/C(=N\O)c1ccc(=O)n(C)c1)c1ccc(OS(C)(=O)=O)c(F)c1 (stereo not shown) [Example 329, Methanesulfonic acid 4-[1-(4-chloro-2-methyl-phenyl)-3-[(E)-hydroxyimino]-3-(1-methyl-6-oxo-1,6-dihydro-pyridin-3-yl)-propyl]-2-fluoro-phenyl ester]
